Data on six molecules can be found in article PMC8398847, “Isavuconazole: Thermodynamic Evaluation of Processes Sublimation, Dissolution and Partition in Pharmaceutically Relevant Media” (Molecules, 2021).

Data set [1] in a line: Vapor pressure by transpiration (inert gas-carrier transfer) method; sublimation thermodynamic functions. Format: physicochemical. To be noted: test of the technique with the standard. Here is the method: The thermodynamic functions of sublimation were calculated as the fitting coefficients of the Clarke and Glew equation [17]:(1) Rlnp/p^0=ΔcrgGm°(θ)/θ+ΔcrgHm°(θ)(1/θ−1/T)+ΔcrgCp,m°(θ)(θ/T−1+lnT/θ) where ΔcrgHm°(θ) is the standard molar sublimation enthalpy, ΔcrgGm°(θ) is the standard molar Gibbs energy of sublimation, and ΔcrgCp,m°(θ) is the difference between the constant pressure standard molar heat capacity Cp,m°(g) of the gaseous compound and the constant pressure standard molar heat capacity Cp,m°(cr) of the crystalline compound. The value is the arbitrary reference temperature θ = 298.15 K; p^0 = 10^5 Pa is the reference pressure.
The transpiration method was used for the sublimation experiment. A stream of an inert gas (nitrogen) was passed over a sample at the constant temperature and flow rate; saturation of the gas with the substance vapor was achieved by low transpiration rate of gas. Then, the sublimated quantity of condensed vapor was determined. The volume of the inert gas and the amount of the sublimated material were used for calculation the vapor pressure over the sample of compound at this temperature. The following procedure was used for determination the amount of sublimed substance. The condensed sample was dissolved in a known volume of solvent Vsol. The mass of the substance was determined by the measurement of absorbance A of its solution (spectrophotometer Cary-50, Varian, Palo Alto, CA, USA, Software Version 3.00 (339)). According to the Lambert–Beer law the concentration of the solution c (mol·L^−1) can express knowing a value of the extinction coefficient ε (l·mol^−1·cm^−1) of the studied compound dissolved in the solvent and an absorbing path length (l):A = εcl(5) where l is an absorbing path length. Calculation the mass of sublimed compound was performed according to the equation:m = cVsolM(6)
M is the molar mass of the studied substance.
The vapor pressure p at each temperature was determined from the amount of the substance collected within a known time:p = mRTa/VM(7) where V is the volume of the gaseous nitrogen evaluated from the time measurement and the flow rate at the flow meter temperature Ta and the atmospheric pressure. Uncertainties for transpiration experiment parameters (T, m, Ta, V) are reported as standard deviations (Table 1). The combined standard uncertainty of vapor pressure measurements were estimated taking into account uncertainties of all variables involved in eq 7.
The details of equipment and experimental procedure are given in [33]. The sublimation technique was tested with benzoic acid as standard. The experimental vapor pressure values were obtained in the temperature interval of (307–385) K and were in good agreement with the results of studies within the limits of experimental error (Figure S7). The standard sublimation enthalpy of benzoic acid measured by us was 90.5 ± 0.3 kJ·mol^−1 and consistent with recommended by IUPAC value—89.7 ± 0.5 kJ·mol^−1 [38]. Each experiment at fixed temperature was repeated three times with the standard deviation of up to 5%.

On the set-up of data set [2]: method as in earlier work. To be noted: cited from earlier work.
The conditions of data set [3]: 298.15 K, cited from earlier work; for sublimation Gibbs energy (kJ∙mol-1, Table S2) / sublimation enthalpy (first kJ∙mol-1 column, Table S2): bicalutamide cluster.
Where [4] appears, read: IVZ cluster, ref Table S1 [1]-[16].

Values joined by “and” are separate entries in the source; they are usually repeats but may differ in a detail not shown here. Equal entries are not always repeated.

Turning to `O=C(O)c1ccccc1` [benzoic acid], the standard sublimation enthalpy in data set [1] is 21.6 ± 0.072 kcal/mol. Further, in data set [2], the “standard sublimation enthalpy recommended by IUPAC” value was 21.4 ± 0.12 kcal/mol.

As to `NC(=O)c1cccc(N)c1` [m-Aminobenzamide], in data set [3], the “sublimation Gibbs energy (kJ∙mol-1, Table S2)” value is 57.5 kJ/mol and 57.8 kJ/mol; the “sublimation enthalpy (first kJ∙mol-1 column, Table S2)” value was 125.3 kJ/mol and 128.6 kJ/mol.

On to `NC(=O)c1ccccc1N` [o-Aminobenzamide], for which, in data set [3], the “sublimation Gibbs energy (kJ∙mol-1, Table S2)” value was 46.1 kJ/mol and the “sublimation enthalpy (first kJ∙mol-1 column, Table S2)” value is 106.8 kJ/mol.

As to `NC(=O)c1ccc(N)cc1` [p-Aminobenzamide], in data set [3], the “sublimation Gibbs energy (kJ∙mol-1, Table S2)” value was 61.7 kJ/mol and the “sublimation enthalpy (first kJ∙mol-1 column, Table S2)” value is 131.2 kJ/mol.

Turning to `CC(=O)Nc1ccc(C=O)cc1` [p-acetaminobenzaldehyde], in data set [3], the “sublimation Gibbs energy (kJ∙mol-1, Table S2)” value is 44.1 kJ/mol and the “sublimation enthalpy (first kJ∙mol-1 column, Table S2)” value is 99.1 kJ/mol.

With `CC(=O)c1ccc(F)cc1` [p-fluoroacetophenone], in data set [3] (setting [4]), the “sublimation Gibbs energy (Table S1)” value was 4.21 kcal/mol and the “sublimation enthalpy (Table S1)” value is 17.1 kcal/mol.
